Data as given in patent publication US12569500B2, “Combination comprising tricycle compound and use thereof in preparation of medicament for treating HBV” (FUJIAN AKEYLINK BIOTECHNOLOGY CO., LTD., priority 2020, dated 2026).

Tests used:
Assay type in all cases: cell-based
[1] = tested on: HepG2.2.15 cells; assay: CellTiter-Glo cytotoxicity of compound 1 / TDF combination
Procedure: 1.1 Day 1, HepG2.2.15 cells were seeded into a 96-well cell culture plate at a density of 40,000 cells/well, and then the cells were cultured overnight at 5% CO2 and 37° C.
1.2 Day 2, the compound 1 and TDF were combined with 7 different concentrations (selected about 8×, 4×, 2×, 1×, 0.5×, 0.25×, 0.125×EC50 concentration gradient) for orthogonal proportioning, and added to 96-well plate, each combination is 3 double plates, and the final concentration of DMSO is 0.5%.
1.3 Day 5, the cell supernatant was discarded, a fresh medium containing the compound was added, and the cells were cultured under 5% CO2, 37° C. for 3 days. On the 8th day, the supernatant from the cell plate treated with the compound was extracted according to the QIAamp 96 DNA Blood Kit (12) instruction.
MacSynegy software (Prichard et al., 1990) was used to process the HBV DNA copy number test data and analyze the effect parameters of compound 1 and TDF in combination. The CellTiter-Glo kit was used to detect the cytotoxicity of the compounds to HepG2.2.15 cells. According to the kit instructions, use a multifunctional microplate reader to detect the chemiluminescence intensity (RLU) of each cell well.

[2] = tested on: HBV; assay: Single agent anti-HBV activity, HBV DNA in supernatant by quantitative PCR, HepG2.2.15 cells; details: Hepatitis B virus, 192 h, day 8
Procedure: (§1) Cell line: HepG2.2.15 cells are constructed and provided by WuXi AppTec. The cell culture medium is DMEM/F12 medium supplemented with 2% fetal bovine serum, 2 mM glutamine, 1×non-essential amino acids, 100 U/mL penicillin and 100 µg/mL streptomycin.
(§2) 2.1.1 On the first day, HepG2.2.15 cells were seeded into a 96-well cell culture plate at a density of 60,000 cells/well, and then the cells were cultured overnight at 5% CO2 and 37° C. On the second day, the compound 1 and the compound of formula (IIb) and the compound of formula (IIIb) were diluted and added to a 96-well plate. Each combination was a three-fold plate. The cells were cultured under 5% CO2 and 37° C. for 3 days. On the 5th day, a new culture medium containing the compound was replaced, and the supernatant was collected on the 8th day. The HBsAg in the supernatant was detected by ELISA, and the DNA in the supernatant was extracted at the same time, and the content of HBV DNA in the supernatant was detected by quantitative PCR. After collecting the cell supernatant, add CellTiter-Glo to detect cell viability.

[3] = tested on: HBsAg; assay: Single agent anti-HBV activity, HBsAg in supernatant by ELISA, HepG2.2.15 cells; details: Hepatitis B virus, HepG2.2.15, 192 h, read-out: HBsAg EC50
Procedure: as §1, §2

Cc1cc2n(c1)S(=O)(=O)c1ccc(C(=O)NCC[C@H]3COCCO3)cc1NC2=O [Compound 1]
average cell viability percentage ([1]; Compound 1 0.533 nM + TDF 0 nM): 121.5% | average cell viability percentage ([1]; Compound 1 1.065 nM + TDF 0 nM): 128.1% | average cell viability percentage ([1]; Compound 1 2.131 nM + TDF 0 nM): 124.5% | average cell viability percentage ([1]; Compound 1 4.261 nM + TDF 0 nM): 125.1% | average cell viability percentage ([1]; Compound 1 8.522 nM + TDF 0 nM): 124.3% | average cell viability percentage ([1]; Compound 1 17.04 nM + TDF 0 nM): 123.1% | average cell viability percentage ([1]; Compound 1 34.09 nM + TDF 0 nM): 115.2% | EC50 [2]: 6.03 nM | EC50 [3]: > 1000 nM
